# Experimental data as given in paper doi:10.1101/2025.04.13.648610v1, “Catalytic Mechanism and Differential Alarmone Regulation of a Conserved Stringent Nucleosidase” (biorxiv, 2025).
# Positions count from the first letter of the chain named.
# How the values were obtained:
# Format in all cases: binding
# PpnN (previously YgdH) [1] = biological target: T1, PpnN (previously YgdH) (Escherichia coli, UniProt P0ADR8, E264A); test: X-ray crystal structure […] Å
# T1 construct: full length, N-terminal His6 tag, plasmid pCA24N-ppnN, expressed in E. coli BL21(DE3) ppnN::kan; homotetramer; domains PAG1 1-150, catalytic 151-329, PAG2 330-454
# T1 sequence (P0ADR8 1-454 E264A): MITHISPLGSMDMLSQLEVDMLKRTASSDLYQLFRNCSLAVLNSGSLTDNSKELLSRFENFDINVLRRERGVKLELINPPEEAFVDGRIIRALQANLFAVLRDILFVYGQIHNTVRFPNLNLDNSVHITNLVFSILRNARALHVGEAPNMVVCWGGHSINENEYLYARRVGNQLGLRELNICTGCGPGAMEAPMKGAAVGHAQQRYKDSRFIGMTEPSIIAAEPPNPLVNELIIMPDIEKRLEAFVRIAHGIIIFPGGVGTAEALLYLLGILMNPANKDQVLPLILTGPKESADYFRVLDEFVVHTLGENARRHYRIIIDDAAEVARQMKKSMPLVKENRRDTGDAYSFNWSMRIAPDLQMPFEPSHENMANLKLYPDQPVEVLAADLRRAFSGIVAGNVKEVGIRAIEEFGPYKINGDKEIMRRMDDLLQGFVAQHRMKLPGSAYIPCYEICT
# PpnN (previously YgdH) [2] = biological target: T2, PpnN (previously YgdH) (Escherichia coli, UniProt P0ADR8); test: X-ray crystal structure
# T2 construct: full length, N-terminal His6 tag, plasmid pCA24N-ppnN, expressed in E. coli BL21(DE3) ppnN::kan; homotetramer; domains PAG1 1-150, catalytic 151-329, PAG2 330-454
# T2 sequence (P0ADR8 1-454): T1 sequence (P0ADR8 1-454 E264A) with A264E
# PpnN (previously YgdH) [3] = biological target: T2, PpnN (previously YgdH); test: X-ray crystal structure […] Å
smiles,measurement,setting,value
Nc1nc2c(ncn2[C@@H]2O[C@H](COP(=O)(O)OP(=O)(O)OP(=O)(O)O)[C@@H](OP(=O)(O)OP(=O)(O)O)[C@H]2O)c(=O)[nH]1 [pppGpp],X-ray crystal structure 3.5 Å,"PpnN (previously YgdH) [1]; allosteric alarmone site at dimer interface, four of four sites, co-crystallised with GMP",all four alarmone sites are occupied by pppGpp
same,X-ray crystal structure,"PpnN (previously YgdH) [2]; allosteric alarmone site at dimer interface, three of four sites",pppGpp was bound to three out of four PpnN molecules
O=P(O)(O)OC[C@H]1OC(O)[C@H](O)[C@@H]1O (stereo partly shown) [ribose 5-phosphate],X-ray crystal structure 3.5 Å,"PpnN (previously YgdH) [1]; active site, four of four, from GMP added to the crystallisation","likely corresponding to the product, R5P"
same,X-ray crystal structure,"PpnN (previously YgdH) [2]; active site of the partially open monomer, carried over, GMP not added, modelled into density",ribose-5-phosphate (R5P) into the bilobed density
Nc1nc2c([C@@H]3O[C@H](COP(=O)(O)O)[C@@H](O)[C@H]3O)c[nH]c2c(=O)[nH]1 [9-deaza-GMP],X-ray crystal structure 3.4 Å,"PpnN (previously YgdH) [3]; second dimer interface (two sites per tetramer), not the active site, with ppGpp",an elongated electron density was found into which 9dG could be modelled
Nc1nc2c(ncn2[C@@H]2O[C@H](COP(=O)(O)OP(=O)(O)O)[C@@H](OP(=O)(O)OP(=O)(O)O)[C@H]2O)c(=O)[nH]1 [ppGpp],X-ray crystal structure 3.4 Å,"PpnN (previously YgdH) [3]; allosteric alarmone site at dimer interface, four of four sites, with 9-deaza-GMP",All four canonical alarmone binding sites are occupied by ppGpp
Nc1nc2[nH]cnc2c(=O)[nH]1 [guanine],X-ray crystal structure,"PpnN (previously YgdH) [2]; active sites of the three open monomers, carried over, GMP not added, modelled into density",guanine into the smaller densities
